Where a SMILES comes first, the peptide text is derived from it. Bridges are numbered along the chain shown (N, C = ends). Roman numbers before positions name the chains, in order. Primed or numbered codes have the meaning given here. Triazole bridges read from a SMILES are 1,4-linked. Where no end group is shown, it is not given here. [ ]: non-standard residue; d: D form. The star is where a group is joined. Biotin = O=C1N[C@H]2[C@H](CS[C@H]2CCCCC(=O)*)N1; Lys(N3) = [N-]=[N+]=NCCCC[C@H](N)C(=O)O; PEG6 = NCCOCCOCCOCCOCCOCCOCCC(=O)O; dPra = C#CC[C@@H](N)C(=O)O; PEG5′ = PEG5 linker

The values below come from patent US10975123B2, “Mutant Akt-specific capture agents, compositions, and methods of using and making” (California Institute of Technology, priority 2014, dated 2021).

Experiment [1] addresses T1, E17K GST-PH Domain (E17K Akt1) (Homo sapiens, UniProt P31749, E17K).
T1 construct: The first 124 N-terminal amino acids from full length Akt1 were used as the PH Domain DNA; GST (N); thrombin cleavage site (C); 6His (C); made in house; host or cells: E. coli BL21-DE3-pLys
Nature of the experiment: Full curve ELISA, immobilized ligand, E17K protein. The class given is binding. As to the method: The full curve ELISAs were obtained using streptavidin coated ELISA plates (Pierce). The ligands—anchor, biligand, triligand and “eflya” scrambled anchor peptide blank—were laid down at a concentration of 1 μM for one hour. Two lanes of each ligand were used on the plate for both proteins—WT and E17K GST-PH Domain. The plates were blocked with 5% BSA for two hours. Dilutions of both WT and E17K GST-PH Domain proteins were made in 0.5% BSA in 1×TBS starting from 1 μM-0.5 nM by serially diluting 1:2 down a series of 8 samples. For each ligand, a no protein blank was also used. The proteins were incubated with the blocked plate for one hour, washed 3× with 1×TBST+0.5% BSA and tapped dry, then detected with a 1:10,000 dilution of an HRP conjugated anti-GST pAb. The plate was again washed 3× with 1×TBST and tapped dry. It was developed with a 1:1 solution of TMB substrate and development was stopped with 1M H2SO4 and read on a plate reader.

Experiment [2] concerns E17K Akt1 relative to E17K Akt2. Nature of the experiment: Point ELISA for triligand binding to Akt1 and Akt2 wildtype and E17K mutant. As to conditions: protein 100 nM, immobilized triligand, in words. As to the method:
These assays were conducted to test the binding of the triligand to the off-target Akt2 wildtype and mutant proteins. For this assay, all samples were taken in triplicate for statistical purposes. Triligand peptide was first immobilized onto neutravdin ELISA plates (Pierce) for one hour. A scrambled anchor peptide, eflya, was used as the no-ligand blank, as the GST proteins has significant background binding to a blank neutravidin plate. The plates were then blocked with 5% BSA overnight. Protein was laid down at a concentration of 100 nM for samples wells and the blank, scrambled peptide wells. GST protein alone (Abcam) was also incubated with the triligand and scrambled peptide as a control. The proteins were incubated for one hour, then washed three times with 1×TBST. The protein was then detected with 1:10,000 anti-GST mouse mAb (Fisher, #MA4-004) for one hour, washed three times with 1×TBST and developed with a 1:1 mixture of TMB substrate for ten minutes. The samples were plotted by subtracting the blanks and averaging the sample wells. The highest signal was considered 100% binding, and the other samples were normalized accordingly.
In general terms: ELISA stands for enzyme-linked immunosorbent assay.

Experiment [3] addresses T2, E17K PH Domain binding to PIP3 (Homo sapiens, UniProt P31749, E17K).
T2 construct: 2 μg of either wildtype or mutant PH Domain-GFP protein (234 nM); made in house; host or cells: HEK-293-6E (used as cell lysate, not purified)
Nature of the experiment: PIP3 agarose inhibition assay, E17K. The class given is biochemical. As to conditions: in words; for inhibition of E17K PH Domain binding to PIP3-coated resin: ligand 2.38 μM (10x protein), protein 234 nM, western blot; for inhibition of E17K PH Domain binding to PIP3 resin, expanded assay: triligand 0.1-1000 eq relative to protein (234 nM). The source says: (§1) The yleaf ligand, the biligand, and the triligand were all tested for their ability to block the E17K PHD binding with PIP3. For this test, PIP3-coated resin (Echelon Biosciences) was used to mimic the PHD interaction with the cell membrane, and could be used to bind the protein as in an immunoprecipitation assay^22. The presence of an effective blocking compound would reduce the ability of the resin to capture the protein, and would thus appear as a diminished signal in the corresponding western blot assay. A control lane containing no capture agent was used to show baseline binding of the protein to the PIP3 resin. […] In an expanded study, we compared the amount of E17K and WT PH domain binding relative to the amount of added triligand (FIG. 5e).
PIP3 Agarose beads (Echelon) were used to detect for the inhibition of PH Domain binding to its substrate, PIP3, upon incubation with the anchor candidate peptide ligands. To test the inhibition of each of the ligands, anchor biligand and triligand, 20 μL of resin slurry was added to each of four tubes and washed three times with 1×TBS. Protein, 2 μg (234 nM) of E17K mutant, was preincubated for one hour at room temperature with either DMSO (no protein blank), anchor, biligand or triligand at 2.38 μM (10× in relation to protein) in 200 μL of 1×TBS. For the control, mutant PH Domain was incubated with 1×TBS and 1 μL […] to mimic the ligand conditions. These protein samples were then added to PIP3 agarose in a Spin-X tube and incubated at room temperature for two hours. The resin was washed three times with 1×TBS with 0.25% IGEPAL CA-630, spun out to dry completely, then denatured with 50 μL 3×SDS gel loading buffer for 10 min at 95° C. The gel loading buffer was spun out of the resin and detected via western blot as per the Streptavidin-Agarose Pulldowns. Inhibition was indicated by a decrease in the amount of PH Domain that was pulled down by the resin.
(§2) Expanded inhibition blots with either WT of E17K mutant protein were performed in a similar fashion. Twelve tubes of 20 μL of PIP3 agarose were washed three times with 1×TBS. 2 μg of either wildtype or mutant PH Domain-GFP protein (234 nM) in 200 uL 1×TBS were preincubated for 30 minutes with differing concentrations of triligand: 0.1 eq (23.4 nM), 1 eq (234 nM), 10 eq (2.34 μM), 100 eq (23.4 μM), and 1000 eq (234 μM). The protein and triligand solutions were then incubated with the PIP3 resin for 2 hours at room temperature. The resins were washed, eluted, and blotted as per all PH Domain western blots.
(In western blotting, separated proteins are transferred to a membrane and probed.)

Experiment [4] concerns the target T3, WT PH Domain binding to PIP3 (Homo sapiens, UniProt P31749).
T3 construct: 2 μg of either wildtype or mutant PH Domain-GFP protein (234 nM); made in house; host or cells: HEK-293-6E (used as cell lysate, not purified)
Nature of the experiment: PIP3 agarose inhibition assay, WT. The class given is biochemical. As to conditions: triligand 0.1-1000 eq relative to protein (234 nM), in words.
Description: as §1, §2

T2 sequence (P31749 5-108 E17K limits assumed): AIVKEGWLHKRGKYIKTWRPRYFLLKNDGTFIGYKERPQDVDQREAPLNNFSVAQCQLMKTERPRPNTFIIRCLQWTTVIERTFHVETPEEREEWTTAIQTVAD
T1 sequence (P31749 1-124 E17K): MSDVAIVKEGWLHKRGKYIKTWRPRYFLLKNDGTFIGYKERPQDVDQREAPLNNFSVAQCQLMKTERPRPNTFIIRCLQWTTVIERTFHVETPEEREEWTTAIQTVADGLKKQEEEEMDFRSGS
T3 sequence (P31749 5-108 limits assumed): as the sequence (P31749 5-108 E17K limits assumed) above, with K13E counted along it

As usually defined, the EC50 is the concentration that produces a half-maximal response. With `CC[C@@H](C)[C@@H](NC(=O)CCOCCOCCOCCOCCOCCOCCNC(=O)CCCC[C@@H]1SC[C@@H]2NC(=O)N[C@@H]21)C(=O)N[C@@H](C(=O)N[C@H](CC(=O)O)C(=O)N[C@H](C)C(=O)N[C@H](CCC(=O)O)C(=O)N[C@H](Cc1cn(CCCC[C@H](NC(C)=O)C(=O)N[C@H](Cc2ccc(O)cc2)C(=O)N[C@H](CC(C)C)C(=O)N[C@H](CCC(=O)O)C(=O)N[C@H](C)C(=O)N[C@H](Cc2ccccc2)C(=O)N[C@H](Cc2cn(CCCC[C@H](NC(C)=O)C(=O)N[C@H](Cc3ccc(O)cc3)C(=O)N[C@H](CCCCN)C(=O)N[C@H](CO)C(=O)N[C@H](Cc3ccc(O)cc3)C(N)=O)nn2)C(=O)O)nn1)C(=O)O)C(C)C` [triligand] (I: Ac-[Lys(N3)][dY][dL][dE][dA][dF][dPra]-OH / II: {Biotin-PEG6}-[dI][dV][dD][dA][dE][dPra]-OH / III: Ac-[Lys(N3)][dY][dK][dS][dY]-NH2; triazole I:1-II:6, I:7-III:1; N-terminus assumed), in experiment [1] (in words), the “change in binding affinity for the E17K protein versus the preceding ligand (ELISA)” value is “does not show an affinity increase for the E17K protein” and the “selectivity for E17K Akt1 relative to WT Akt1 (ELISA)” value is listed as “largely recovered”. For the same compound, the “selectivity for E17K Akt1 relative to WT Akt1 (ELISA)” value in experiment [1] (in words, listed as ivdae) is “maintains the selectivity over the WT protein”. In experiment [1] (ligand immobilized at 1 μM on streptavidin plate, Hill fit with common saturation and slope, read-out: EC50 for the E17K Akt1 from ELISA binding curves), the EC50 came to 45 nM. Moreover, in experiment [2], the “preference for E17K Akt1 relative to E17K Akt2” value is “slight preference for E17K Akt1 relative to E17K Akt2”. For the same compound, in experiment [3], the “inhibition of E17K PH Domain binding to PIP3-coated resin” value is on record as “exhibited the ability to block the PHD-PIP3 interaction, with the triligand being the most effective” and the “inhibition of E17K PH Domain binding to PIP3 resin, expanded assay” value is given as “significant selective inhibition of the E17K mutant relative to the WT”.

In the case of “triligand 8: form of the ivdae-yleaf-yksy triligand used in PIP3 inhibition assays (peptide 1 {Biotin-PEG5′}-[dI][dV][dD][dA][dE]; peptide 2 [dY][dL][dE][dA][dF]; peptide 3 [dY][dK][dS][dY]; not fully specified (N-terminus, C-terminus); also: triazole to a chain's N/C-terminus via Pra/Lys(N3), triazole to a chain's N/C-terminus via Pra/Lys(N3))”, the “inhibition of WT PH Domain binding to PIP3 resin, expanded assay” value in experiment [4] is “little inhibition of this protein”. Also, in experiment [3], the “inhibition of E17K PH Domain binding to PIP3-coated resin” value is “decreased binding of the protein” and the “inhibition of E17K PH Domain binding to PIP3 resin, expanded assay” value is “significant inhibition”.
